# Test results published in patent publication US20250340569A1, “INHIBITORS OF KIF18A AND USES THEREOF” (Insilico Medicine IP Limited, priority 2023, published 2025).
# pIC50: −log10 of the molar value.
# What was measured:
# OVCAR-3 = test: OVCAR3 CTG assay; assay type: cell-based; settings: Homo sapiens, OVCAR-3, 144 h; CellTiter-Glo, 6 days incubation
# Excerpt: Example B2: OVCAR3 CTG Assay
# • a) Preparation of complete medium: Added FBS and appropriate additives according to the information sheet provided by the vendor. Mix gently. • b) Checked the cell name and complete medium and passage number marked on the flask. For adherent cell lines, refer to c to k. For suspension cell lines, refer to g to k. • c) Removed and discarded culture medium using a vacuum pump. • d) Briefly rinsed the cell layer with 0.25% (w/v) Trypsin-0.038% (w/v) EDTA solution to remove all traces of serum that contains trypsin inhibitor. • e) Added 3.0 ml of Trypsin-EDTA solution to flask and observed cells under an inverted microscope until cell layer is dispersed. • f) Added 9.0 ml of complete growth medium and aspirated cells by gently pipetting. • g) Transfered the cell suspension to a centrifuge tube and centrifuged at 1000 rpm for 4 minutes. • h) Discarded the supernatant using a vacuum pump. • i) Added appropriate volume of complete medium. Suspended the cell pellet by gently pipetting. • j) Counted the cell numbers with Vi-cell XR and adjusted cells to appropriate density. • k) Added 190 μL of cell suspension to 96-well opaque-walled clear bottom plates according to the planned plate layout and placed the plates in the CO2 incubator overnight.
# 2) Compound Stock Preparation:
# • a) Plate preparation of testing articles:
# The compounds were dissolved in DMSO to prepare 10 mM stock solution. The start working concentration (2 mM) was prepared with DMSO.
# b) Staurosporine Plate Preparation:
# 0.4 mM Staurosporine was prepared in DMSO at working concentration.
# The 20× compound containing medium was prepared according to the plate map. 10 μL of 20× compound containing medium was added into each well of the assay plates. Centrifuged at 1000 rpm for 1 minute. The total dilution was 200-fold.
# 3) Cells were Incubated with the Compounds for 6 Days at 5% CO2, 37° C.
# Assay Measurement for CTG Assay
# 1) Preparation of Reagents
# • a) Thawed the CellTiter-Glo buffer and equilibrated to room temperature prior to use. • b) Equilibrated the lyophilized CellTiter-Glo substrate to room temperature prior to use. • c) Transfered the appropriate volume of CellTiter-Glo buffer into the amber bottle containing CellTiter-Glo substrate to reconstitute the lyophilized enzyme/substrate mixture. This formed the CellTiter-Glo reagent. • d) Mixed by gently vortexing, swirling or by inverting the contents to obtain a homogeneous solution. The CellTiter-Glo substrate went into solution easily in less than one minute.
# • a) Observed the cell morphology under an inverted microscope after corresponding treatment. • b) Equilibrated the plate and its contents to room temperature for approximately 30 minutes. • c) Added 100 μL of CellTiter-Glo reagent to the assay plate by Multidrop Combi instrument. • d) Mixed contents for 10 minutes on an orbital shaker to induce cell lysis. • e) Allowed the plate to incubate at room temperature for 10 minutes to stabilize luminescent signal. • f) Pasted the clear bottom with white back seal and record luminescence with Envision. The settings should be: Luminescence, measurement time 0.1 s.
# Kif18A = molecular target: T1, Kif18A (Homo sapiens, UniProt Q8NI77); test: KIF18A assay (ADP Glo); settings: biochemical assay, ADP Glo luminescence
# T1 sequence (Q8NI77 1-898): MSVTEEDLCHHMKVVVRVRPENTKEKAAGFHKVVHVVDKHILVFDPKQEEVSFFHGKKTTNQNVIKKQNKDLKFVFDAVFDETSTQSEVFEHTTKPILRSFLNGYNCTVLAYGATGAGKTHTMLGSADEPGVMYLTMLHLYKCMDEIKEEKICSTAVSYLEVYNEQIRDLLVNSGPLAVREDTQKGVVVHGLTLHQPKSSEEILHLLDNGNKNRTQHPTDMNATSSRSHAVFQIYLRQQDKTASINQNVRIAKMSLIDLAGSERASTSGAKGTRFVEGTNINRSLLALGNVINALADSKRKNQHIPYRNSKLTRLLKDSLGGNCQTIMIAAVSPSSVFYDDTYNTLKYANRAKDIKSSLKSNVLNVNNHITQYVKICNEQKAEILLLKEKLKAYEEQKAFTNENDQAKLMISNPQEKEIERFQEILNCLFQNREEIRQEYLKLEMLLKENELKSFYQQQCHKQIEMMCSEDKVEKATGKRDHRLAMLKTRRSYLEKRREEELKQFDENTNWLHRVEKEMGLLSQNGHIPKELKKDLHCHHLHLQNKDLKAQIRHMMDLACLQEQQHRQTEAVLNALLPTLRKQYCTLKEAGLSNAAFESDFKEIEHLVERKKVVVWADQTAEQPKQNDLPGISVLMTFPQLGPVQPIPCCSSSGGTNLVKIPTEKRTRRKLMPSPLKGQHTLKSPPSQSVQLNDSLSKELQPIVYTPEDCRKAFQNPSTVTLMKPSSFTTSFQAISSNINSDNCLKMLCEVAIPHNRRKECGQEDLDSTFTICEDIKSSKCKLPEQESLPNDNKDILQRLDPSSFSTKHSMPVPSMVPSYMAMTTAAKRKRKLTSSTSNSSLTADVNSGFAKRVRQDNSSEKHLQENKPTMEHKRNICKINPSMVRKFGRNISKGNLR
# Method: The KIF18A assay was performed as follows:
# 1.1. Prepared 1× Kinase Buffer
# • a) Added 40 μL test compound to 384-well dilution plate • b) Diluted compound 1:3 in succession in DMSO for each column for 10 pts • c) Transferred 0.1 μL diluted compound solution to 384 assay plate using Echo, each column containing 2 replicates • d) Added 5 μL enzyme working solution to 384-well assay plate, centrifuge 1000 RPM for 1 min e) Incubated at 25° C. for 15 min • f) Added 5 μL ATP working solution to initiate reaction • g) Incubated at 25° C. for 60 min • h) Added 10 μL ADP Glo reagent, centrifuge 1000 RPM for 1 min • i) Incubated at 25° C. for 60 min • j) Added 20 μL kinase detection reagent, centrifuge 1000 RPM for 1 min • k) Incubated at 25° C. for 60 min • l) Read Luminescence Signal on Envision 2104 plate reader.
# 1.3. Data Analysis—Calculated IC50 and Plot Dose-Response Curve of Compounds:
# Calculated IC50 by fitting % Inhibition values and log of compound concentrations to nonlinear regression (dose response−variable slope) with GraphPad 6.0.
# [formula] • X: log of inhibitor concentration; Y: % Inhibition
Compound,pIC50 (OVCAR-3),pIC50 (Kif18A)
Cc1cc2nc(n1)NCCOC[C@@H]1CCC[C@H](COc3cc(NS(=O)(=O)CCO)ccc3C(=O)N2)C1 (relative stereo) [EX106],5.00 to 6.00,6.00 to 7.00
"CC1CCCC2(C(F)(F)F)CCN(CC2)c2cc(NS(=O)(=O)CCO)ncc2C(=O)Nc2cccc(n2)NC1 (single isomer, unassigned) [EX100-B]",> 8.00,> 8.00
CC12CCN(CC1)c1cc(NS(=O)(=O)CCO)ccc1C(=O)Nc1cccc(n1)OCCOC2 [EX01],6.00 to 7.00,7.00 to 8.00
CC12CCN(CC1)c1cc(NS(=O)(=O)CCO)ccc1C(=O)Nc1cccc(n1)OCCCOC2 [EX02],7.00 to 8.00,> 8.00
Cc1cc2nc(n1)OCCOCC1(C)CCN(CC1)c1cc(NS(=O)(=O)CCO)ccc1C(=O)N2 [EX03],6.00 to 7.00,7.00 to 8.00
Cc1cc2nc(n1)N(C)CCOCC1(C)CCN(CC1)c1cc(NS(=O)(=O)CCO)ccc1C(=O)N2 [EX04],7.00 to 8.00,7.00 to 8.00
Cc1cc2nc(n1)OCCCOCC1(C)CCN(CC1)c1cc(NS(=O)(=O)CCO)ccc1C(=O)N2 [EX05],7.00 to 8.00,> 8.00
Cc1cc2nc(n1)N(C)CCCOCC1(C)CCN(CC1)c1cc(NS(=O)(=O)CCO)ccc1C(=O)N2 [EX06],6.00 to 7.00,> 8.00
CC12CCN(CC1)c1cc(NS(C)(=O)=O)ccc1C(=O)Nc1cccc(n1)OCCCOC2 [EX08],6.00 to 7.00,> 8.00
Cc1cc2nc(n1)N(C)CCOCCC1(C)CCN(CC1)c1cc(NS(=O)(=O)CCO)ccc1C(=O)N2 [EX09],6.00 to 7.00,7.00 to 8.00
CN1CCOCC2(C)CCN(CC2)c2cc(NS(=O)(=O)CCO)ccc2C(=O)Nc2cccc(c2)C1=O [EX10],6.00 to 7.00,7.00 to 8.00
O=C1Nc2cccc(n2)OCCCOCC2CCN(CC2)c2cc(NS(=O)(=O)CCO)ccc21 [EX11],6.00 to 7.00,7.00 to 8.00
Cc1cc2nc(n1)NCCCOCC1(C)CCN(CC1)c1cc(NS(=O)(=O)CCO)ccc1C(=O)N2 [EX12],7.00 to 8.00,7.00 to 8.00
CC12CCN(CC1)c1cc(NS(=O)(=O)CCO)ccc1C(=O)Nc1ccc(=O)n(n1)CCCCOC2 [EX13],6.00 to 7.00,7.00 to 8.00
Cc1cc2nc(n1)N(C)CCCOCC1(C)CCN(CC1)c1cc(S(=O)(=O)NC(C)(C)C)ccc1C(=O)N2 [EX15],6.00 to 7.00,7.00 to 8.00
CNS(=O)(=O)c1ccc2c(c1)N1CCC(C)(CC1)COCCCN(C)c1nc(C)cc(n1)NC2=O [EX16],6.00 to 7.00,7.00 to 8.00
Cc1cc2nc(n1)NCCCOCC1(C(F)(F)F)CCN(CC1)c1cc(NS(=O)(=O)CCO)ccc1C(=O)N2 [EX17],> 8.00,> 8.00

Compound,pIC50 (OVCAR-3),pIC50 (Kif18A)
Cc1cc2nc(n1)NCCCCOC1(C)CCN(CC1)c1cc(NS(=O)(=O)CCO)ccc1C(=O)N2 [EX18],6.00 to 7.00,7.00 to 8.00
Cc1cc2nc(n1)NCC(C)COCC1(C)CCN(CC1)c1cc(NS(=O)(=O)CCO)ccc1C(=O)N2 (stereo not shown) [EX19],> 8.00,> 8.00
Cc1cc2nc(n1)NC(C)CCOCC1(C)CCN(CC1)c1cc(NS(=O)(=O)CCO)ccc1C(=O)N2 (stereo not shown) [EX20],7.00 to 8.00,7.00 to 8.00
CN1CCOCC2(C)CCN(CC2)c2cc(NS(=O)(=O)CCO)ccc2C(=O)Nc2cccc(n2)C1=O [EX21],6.00 to 7.00,6.00 to 7.00
CN1CCCOCC2(C)CCN(CC2)c2cc(NS(=O)(=O)CCO)ccc2C(=O)Nc2cccc(n2)C1=O [EX22],6.00 to 7.00,6.00 to 7.00
Cc1cc2nc(n1)NCCOCCC1(C)CCN(CC1)c1cc(NS(=O)(=O)CCO)ccc1C(=O)N2 [EX23],7.00 to 8.00,7.00 to 8.00
Cc1cc2nc(n1)NCC(F)COCC1(C)CCN(CC1)c1cc(NS(=O)(=O)CCO)ccc1C(=O)N2 (stereo not shown) [EX24],7.00 to 8.00,> 8.00
Cc1cc2nc(n1)NCCCOCC1(C)CCN(CC1)c1cc(S(N)(=O)=O)ccc1C(=O)N2 [EX25-A],7.00 to 8.00,7.00 to 8.00
Cc1cc2nc(n1)NCCCOCC1(C)CCN(CC1)c1cc(S(=O)(=O)NC(C)(C)C)ccc1C(=O)N2 [EX25],> 8.00,7.00 to 8.00
Cc1cc2nc(n1)N(CC(F)(F)F)CCCOCC1(C)CCN(CC1)c1cc(NS(=O)(=O)CCO)ccc1C(=O)N2 [EX26],5.00 to 6.00,7.00 to 8.00
Cc1cc2nc(n1)N(C)CCCOCC1(C(F)(F)F)CCN(CC1)c1cc(NS(=O)(=O)CCO)ccc1C(=O)N2 [EX27],6.00 to 7.00,7.00 to 8.00
Cc1cc2nc(n1)NCC(O)COCC1(C)CCN(CC1)c1cc(NS(=O)(=O)CCO)ccc1C(=O)N2 (stereo not shown) [EX40],,7.00 to 8.00
Cc1cc2nc(n1)N1CCO[C@H](CCCC3(C(F)(F)F)CCN(CC3)c3cc(NS(=O)(=O)CCO)ccc3C(=O)N2)C1 [EX111-A],6.00 to 7.00,
Cc1cc2nc(n1)N1CCO[C@@H](CCCC3(C(F)(F)F)CCN(CC3)c3cc(NS(=O)(=O)CCO)ccc3C(=O)N2)C1 [EX111-B],7.00 to 8.00,
Cc1cc2nc(n1)N1CCO[C@@H](COCC3(C(F)F)CCN(CC3)c3cc(NS(=O)(=O)CCO)ccc3C(=O)N2)C1 [EX113-B],7.00 to 8.00,
Cc1cc2nc(n1)N1CCC(F)(F)[C@H](CCCC3(C)CCN(CC3)c3cc(NS(=O)(=O)CCO)ccc3C(=O)N2)C1 [EX115-A],6.00 to 7.00,
